The text below walks through data of patent US20240279241A1, “PYRIDO[4,3-D]PYRIMIDINE COMPOUNDS CAPABLE OF INHIBITING KRAS MUTANT PROTEINS” (Redx Pharma PLC, priority 2021, published 2024).

Read-outs that look alike come from different tables or passages of the source. Where only a bound is given, the exact number is not on record here.

Usually IC50 stands for the concentration that inhibits the measured activity by half.

Holding throughout (format): biochemical
One assay deals with T1, KRAS G12C (Homo sapiens, UniProt P01116, G12C).
T1 construct: 4 nM KRAS; aa1-188 containing the G12V, G12C, G12A or G12S amino acid substitution
T1 sequence (P01116 1-188 isoform P01116-2 G12C): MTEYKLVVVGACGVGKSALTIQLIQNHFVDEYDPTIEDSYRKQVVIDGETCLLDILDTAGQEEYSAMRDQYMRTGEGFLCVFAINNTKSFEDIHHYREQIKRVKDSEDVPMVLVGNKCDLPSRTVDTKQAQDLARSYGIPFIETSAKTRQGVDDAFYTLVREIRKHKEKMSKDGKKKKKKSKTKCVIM
The assay can be described thus: HTRF nucleotide exchange assay (NEA), KRAS G12C. In short, it runs like this:
(§1)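 TR-FRET readout; IC50 by four-parameter logistic fit, ≥2 replicates. Protein: N-terminal 6×His KRAS aa1-188, 2 nM for WT/G13D, 4 nM for G12C/G12S, with 2 nM Eu anti-His. Compound pre-incubation 60 min RT, then fluorescent GTP analog (added as 200 nM solution), 30 min RT.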

In a further assay the target is T2, KRAS G12D (Homo sapiens, UniProt P01116, G12D).
T2 construct: Recombinant human RAS protein (2 nM)
T2 sequence (P01116 1-188 isoform P01116-2 G12D): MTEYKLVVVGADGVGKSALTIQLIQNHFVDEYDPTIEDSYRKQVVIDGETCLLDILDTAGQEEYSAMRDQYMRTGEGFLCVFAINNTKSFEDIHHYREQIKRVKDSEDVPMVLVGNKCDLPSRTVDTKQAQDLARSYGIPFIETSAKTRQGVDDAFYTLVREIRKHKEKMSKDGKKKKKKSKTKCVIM
As to the kind of experiment: HTRF nucleotide exchange assay (NEA), KRAS G12D. As to conditions: recombinant human KRAS G12D aa1-188, 2 nM; lowest class = % inhibition at 10 μM. An outline of the steps:
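Compound binding to KRAS G12D was measured by HTRF nucleotide exchange. Recombinant human KRAS G12D (aa1-188, N-terminal 6×His-tag, 2 nM) and 2 nM Europium anti-6×His antibody were combined with compound in 5 uL assay buffer in 384-well plates for 60 minutes at room temperature, then 5 ul of 200 nM EDA-GTP-DY647P1 was added for 30 minutes before time-resolved fluorescence reading.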
A general note: TR-FRET usually uses a lanthanide donor and a delayed reading to cut background.

Another assay addresses T3, KRAS WT (Homo sapiens, UniProt P01116).
T3 construct: Recombinant human RAS protein (2 nM); aa1-188 KRAS WT
The assay can be described thus: HTRF nucleotide exchange assay (NEA), KRAS WT. In short, it runs like this: as §1

In a further assay the target is T4, KRAS G12V (Homo sapiens, UniProt P01116, G12V).
T4 construct: 4 nM KRAS; aa1-188 containing the G12V, G12C, G12A or G12S amino acid substitution
T4 sequence (P01116 1-188 isoform P01116-2 G12V): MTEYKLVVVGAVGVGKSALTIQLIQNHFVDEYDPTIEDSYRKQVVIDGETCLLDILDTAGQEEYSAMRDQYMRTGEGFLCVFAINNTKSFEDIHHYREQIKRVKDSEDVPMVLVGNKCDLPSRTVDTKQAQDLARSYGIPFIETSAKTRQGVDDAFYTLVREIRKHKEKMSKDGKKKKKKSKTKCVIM
As to the kind of experiment: HTRF nucleotide exchange assay (NEA), KRAS G12V. An outline of the steps: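 After a further 30 minutes at room temperature, time-resolved fluorescence was read on a PerkinElmer Envision. The buffer contained 10 mM HEPES pH7.3, 150 mM NaCl, 5 mM MgCl2, 0.05% BSA, 0.0025% NP-40 and 100 mM KF. DMSO (0.3%) gave the Max signal and unlabeled GOP (1 μM) the Min signal. IC50 came from four-parameter logistic fits of at least two independent replicates.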

A further assay deals with T5, KRAS G12A (Homo sapiens, UniProt P01116, G12A).
T5 construct: 4 nM KRAS; aa1-188 containing the G12V, G12C, G12A or G12S amino acid substitution
T5 sequence (P01116 1-188 isoform P01116-2 G12A): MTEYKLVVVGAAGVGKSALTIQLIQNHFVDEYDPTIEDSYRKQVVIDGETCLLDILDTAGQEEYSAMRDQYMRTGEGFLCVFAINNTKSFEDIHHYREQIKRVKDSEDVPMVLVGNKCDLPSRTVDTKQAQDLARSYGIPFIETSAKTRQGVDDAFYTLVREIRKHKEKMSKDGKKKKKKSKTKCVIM
The assay can be described thus: HTRF nucleotide exchange assay (NEA), KRAS G12A. The protocol:
(§2) The capacity of compounds to bind KRAS G12D, other KRAS mutants and wildtype RAS isoforms was quantified using a HTRF nucleotide exchange assay. Recombinant human RAS protein (2 nM; aa1-188 KRAS WT, HRAS WT, NRAS WT, or KRAS containing the containing the G12D, G13D or Q61H amino acid substitutions, or 4 nM KRAS; aa1-188 containing the G12V, G12C, G12A or G12S amino acid substitution, an N-terminal 6×His-tag and leader sequence), and 2 nM Europium-labeled anti-6×His antibody were mixed in assay buffer (10 mM HEPES pH7.3, 150 mM NaCl, 5 mM MgCl2, 0.05% BSA, 0.0025% NP-40 and 100 mM KF) with various concentrations of compound in a 384-well plate and a volume of 5 uL. After a 60-minute incubation at room temperature, 5 ul of 200 nM EDA-GTP-DY647P1 (diluted in assay buffer) was added to the plate. Following 30-minute incubation at room temperature, time-resolved fluorescence was measured on a PerkinElmer Envision plate reader. DMSO (0.3%) and unlabeled […] (1 μM) or equivalent tool compound were used to generate the Max and Min assay signals, respectively. Data was analysed using a four-parameter logistic model to calculate IC50 values, with at least two independent replicates were performed for each compound.

A further assay deals with T6, KRAS G13D (Homo sapiens, UniProt P01116, G13D).
T6 construct: Recombinant human RAS protein (2 nM); aa1-188 KRAS WT
T6 sequence (P01116 1-188 isoform P01116-2 G13D): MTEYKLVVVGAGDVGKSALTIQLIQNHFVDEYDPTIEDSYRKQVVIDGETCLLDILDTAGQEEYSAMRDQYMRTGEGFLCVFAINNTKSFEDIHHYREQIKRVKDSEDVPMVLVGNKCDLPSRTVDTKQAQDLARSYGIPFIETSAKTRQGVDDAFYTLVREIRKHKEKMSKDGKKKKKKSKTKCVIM
The assay can be described thus: HTRF nucleotide exchange assay (NEA), KRAS G13D. On the procedure: as §2

For the next assay, the target named is T7, KRAS G12S (Homo sapiens, UniProt P01116, G12S).
T7 construct: 4 nM KRAS; aa1-188 containing the G12V, G12C, G12A or G12S amino acid substitution
T7 sequence (P01116 1-188 isoform P01116-2 G12S): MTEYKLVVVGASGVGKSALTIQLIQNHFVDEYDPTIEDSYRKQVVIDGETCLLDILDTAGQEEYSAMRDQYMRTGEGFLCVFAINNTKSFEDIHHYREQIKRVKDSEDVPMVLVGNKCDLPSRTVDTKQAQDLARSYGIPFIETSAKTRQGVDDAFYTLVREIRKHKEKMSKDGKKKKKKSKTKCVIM
As to the kind of experiment: HTRF nucleotide exchange assay (NEA), KRAS G12S. On the procedure:
as §2

A further assay concerns the target T8, KRAS Q61H (Homo sapiens, UniProt P01116, Q61H).
T8 construct: Recombinant human RAS protein (2 nM); aa1-188 KRAS WT
The assay can be described thus: HTRF nucleotide exchange assay (NEA), KRAS Q61H. The protocol: as §2

The mark [1] stands for this setting: recombinant human KRAS G13D aa1-188, 2 nM, lowest class = % inhibition at 10 μM.

T8 sequence (P01116 1-188 isoform P01116-2 Q61H): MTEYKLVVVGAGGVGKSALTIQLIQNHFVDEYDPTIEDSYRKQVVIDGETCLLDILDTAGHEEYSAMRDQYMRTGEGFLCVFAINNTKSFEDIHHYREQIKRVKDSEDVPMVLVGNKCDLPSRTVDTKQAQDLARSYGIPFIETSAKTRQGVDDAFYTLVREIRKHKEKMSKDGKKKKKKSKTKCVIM
T3 sequence (P01116 1-188 isoform P01116-2): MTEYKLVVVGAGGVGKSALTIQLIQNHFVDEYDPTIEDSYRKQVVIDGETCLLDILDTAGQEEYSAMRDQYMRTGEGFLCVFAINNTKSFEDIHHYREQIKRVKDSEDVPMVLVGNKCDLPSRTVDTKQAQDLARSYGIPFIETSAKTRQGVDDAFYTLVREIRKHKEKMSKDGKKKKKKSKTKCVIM

Take `C#Cc1c(F)ccc2cc(O)cc(-c3ncc4c(N5CCCCCC5)nc(OC[C@@]56CCCN5C[C@H](F)C6)nc4c3F)c12` (relative stereo) [Example 84, 4-[4-(azepan-1-yl)-8-fluoro-2-[[trans-2-fluoro-1,2,3,5,6,7-hexahydropyrrolizin-8-yl]methoxy]pyrido[4,3-d]pyrimidin-7-yl]-5-ethynyl-6-fluoro-naphthalen-2-ol]: the IC50 on KRAS G12C is ≤ 10 nM; at KRAS G12D, ≤ 10 nM; on KRAS WT it was ≤ 10 nM; on KRAS G12V, ≤ 10 nM; at KRAS G12A it was ≤ 10 nM; against KRAS G13D, 100 to 10000 nM. The IC50 on KRAS G12S and against KRAS Q61H was ≤ 10 nM each time.
Consider `C#Cc1c(F)ccc2cc(O)cc(-c3ncc4c(NCCCOC)nc(OC[C@@]56CCCN5C[C@H](F)C6)nc4c3F)c12` (relative stereo) [Example 85, 5-ethynyl-6-fluoro-4-[8-fluoro-2-[[trans-2-fluoro-1,2,3,5,6,7-hexahydropyrrolizin-8-yl]methoxy]-4-(3-methoxypropylamino)pyrido[4,3-d]pyrimidin-7-yl]naphthalen-2-ol], for which the IC50 was ≤ 10 nM against KRAS G12C; ≤ 10 nM at KRAS G12D; ≤ 10 nM against KRAS WT; ≤ 10 nM against KRAS G12V; ≤ 10 nM against KRAS G12A; > 10000 nM on KRAS G13D (setting [1]). Moreover, the 50% inhibitory concentration (IC50) at KRAS G12S and on KRAS Q61H was 10 to 100 nM throughout.
In the case of `Oc1cc(-c2ncc3c(N4CCCOCC4)nc(OCC45CCCN4CCC5)nc3c2F)c2ccccc2c1` [Example 3, 4-[8-fluoro-2-(1,2,3,5,6,7-hexahydropyrrolizin-8-ylmethoxy)-4-(1,4-oxazepan-4-yl)pyrido[4,3-d]pyrimidin-7-yl]naphthalen-2-ol], the 50% inhibitory concentration (IC50) on KRAS G12C is ≤ 10 nM; at KRAS G12D, ≤ 10 nM; against KRAS WT, 10 to 100 nM; on KRAS G12V, ≤ 10 nM; against KRAS G12A, ≤ 10 nM; against KRAS G13D, 100 to 10000 nM. In addition, the half-maximal inhibitory concentration (IC50) against KRAS G12S and against KRAS Q61H was 10 to 100 nM each time.
Consider `CC1COCCN(c2nc(OCC34CCCN3CCC4)nc3c(F)c(-c4cc(O)cc5ccccc45)ncc23)C1` (stereo not drawn) [Example 19, 4-[8-fluoro-2-(1,2,3,5,6,7-hexahydropyrrolizin-8-ylmethoxy)-4-(6-methyl-1,4-oxazepan-4-yl)pyrido[4,3-d]pyrimidin-7-yl]naphthalen-2-ol], for which the IC50 against KRAS G12C is 10 to 100 nM; on KRAS G12D, 10 to 100 nM; at KRAS WT it was 10 to 100 nM; on KRAS G12V, 10 to 100 nM; against KRAS G12A, 10 to 100 nM; on KRAS G13D (setting [1]), > 10000 nM. The IC50 against KRAS G12S and against KRAS Q61H was 100 to 10000 nM throughout.
For the compound `Oc1cc(-c2ncc3c(N4CCCSCC4)nc(OCC45CCCN4CCC5)nc3c2F)c2ccccc2c1` [Example 38, 4-[8-fluoro-2-(1,2,3,5,6,7-hexahydropyrrolizin-8-ylmethoxy)-4-(1,4-thiazepan-4-yl)pyrido[4,3-d]pyrimidin-7-yl]naphthalen-2-ol], the concentration for half-maximal inhibition (IC50) at KRAS G12C was ≤ 10 nM; on KRAS G12D it was 10 to 100 nM; on KRAS WT, 10 to 100 nM; against KRAS G12V, ≤ 10 nM; at KRAS G12A, ≤ 10 nM; on KRAS G13D (setting [1]), > 10000 nM. Also, the half-inhibitory concentration (IC50) against KRAS G12S and at KRAS Q61H was 10 to 100 nM each time.
Turning to `Oc1cc(-c2ncc3c(N4CCCC5(CCOC5)C4)nc(OCC45CCCN4CCC5)nc3c2F)c2ccccc2c1` (stereo not drawn) [Example 56, 4-[8-fluoro-2-(1,2,3,5,6,7-hexahydropyrrolizin-8-ylmethoxy)-4-(2-oxa-9-azaspiro[4.5]decan-9-yl)pyrido[4,3-d]pyrimidin-7-yl]naphthalen-2-ol], the IC50 was 100 to 10000 nM on KRAS G12C; 100 to 10000 nM on KRAS G12D; 100 to 10000 nM against KRAS WT; 100 to 10000 nM on KRAS G12V; 100 to 10000 nM against KRAS G12A; > 10000 nM at KRAS G13D (setting [1]). Further, the IC50 against KRAS G12S and on KRAS Q61H was 100 to 10000 nM each time.
